Structures are written as SMILES. Several values for one entry are separate records, joined by “and”; a condition that tells them apart may be missing. Identical values can stand only once.

Test [1] concerns the target T1, SARS-CoV PLpro (Severe acute respiratory syndrome coronavirus, UniProt P0C6X7). Nature of the test: biochemical. Particulars: for Ki: Ki (inhibition constant).
In test [2] the target is T1, SARS-CoV PLpro. Nature of the test: biochemical. The note with it: for IC50: IC50 Value, SARS-CoV PLpro inhibitory activity.

The Ki is a dissociation constant, usually derived from enzyme kinetics or from competition with a known ligand. High values mean a looser hold on the target, low ones a stronger hold on the target. By IC50 is commonly meant the concentration needed to halve the response being measured. Regarding `CC(C)=CCC[C@@]1(C)C=Cc2c(ccc(C(=O)/C=C/c3ccc(O)cc3)c2O)O1` (racemic) [Compound 8, (±)-lespeol], on SARS-CoV PLpro [1], the “Inhibition Mode” value was “Noncompetitive (54.0 ± 4.5)” and the Ki amounted to 54 µM. In addition, at SARS-CoV PLpro [2], the “fold lower potency than 7” value turned out to be 8 fold and the IC50 came out at 50.1 ± 4.2 µM.
As to `CC(C)=CCc1cc2c(cc1O)OC[C@H]1c3ccc(O)c(CC=C(C)C)c3O[C@@H]21` [Compound 1, erythrabyssin II], the “Inhibition Mode” value at SARS-CoV PLpro [1] is “Noncompetitive (17.0 ± 3.1)”.
With `CC(C)=CCc1cc2c(cc1O)OCC1c3cc(C)c(O)c(CC=C(C)C)c3OC21` (stereo not shown) [Compound 2, lespebuergine G4], on SARS-CoV PLpro [1], the “Inhibition Mode” value is given as “Noncompetitive (33.2 ± 1.7)” and the Ki was 33.2 µM. Further, the IC50 against SARS-CoV PLpro [2] is 33 µM and 32.9 µM.
Consider `COc1c(CC=C(C)C)c(O)cc2c1[C@@H]1Oc3c(ccc(O)c3CC=C(C)C)[C@@H]1CO2` [Compound 3, 1-methoxyerythrabyssin II], for which, on SARS-CoV PLpro [1], the “Inhibition Mode” value is listed as “Noncompetitive (8.6 ± 1.1)” and affinity was put at a Ki of 8.6 µM. Besides, at SARS-CoV PLpro [2], the “fold higher inhibition than demethoxylated analog 1” value is 2 fold and the IC50 was 11.2 µM.
Regarding `COc1c(CC=C(C)C)c(O)cc2c1[C@@H]1Oc3c(cc(C)c(O)c3CC=C(C)C)[C@@H]1CO2` [Compound 4, bicolosin A], on SARS-CoV PLpro [1], the “Inhibition Mode” value is “Noncompetitive (45.2 ± 3.1)” and the affinity, expressed as Ki, was 45.2 µM. For the same molecule, the IC50 at SARS-CoV PLpro [2] was 43.3 µM and 43.2 µM.
In turn, `CC(C)=CCC/C(C)=C/Cc1cc2c(cc1O)OC[C@H]1c3cc(C)c(O)c(CC=C(C)C)c3O[C@@H]21` [Compound 5, bicolosin B] came in with an IC50 against SARS-CoV PLpro [2] of 217 ± 7.6 µM.
Consider `COc1cc(O)c(C/C=C(\C)CCC=C(C)C)c2c1[C@@H]1Oc3cc(O)ccc3[C@@H]1CO2` [Compound 6, bicolosin C], for which, at SARS-CoV PLpro [1], the “Effect on Michaelis-Menten constant (Km)” value is “no effect”, the “Effect on Vmax” value is “reduced”, the “Inhibition Mode” value is on record as “Noncompetitive (9.0 ± 1.4)” and the Reversibility of inhibition entry is listed as “reversible inhibitor”. The Ki on SARS-CoV PLpro [1] was 9.06 µM and 9 µM. At SARS-CoV PLpro [2], this molecule displayed an IC50 of 9.3 ± 3.1 µM.
For the molecule `CC(C)=CCC/C(C)=C/Cc1c(O)ccc(C(=O)/C=C/c2ccc(O)cc2)c1O` [Compound 7, xanthoangelol], at SARS-CoV PLpro [1], the “Inhibition Mode” value is given as “Noncompetitive (5.5 ± 0.8)” and the Ki was found to be 5.5 µM. Also, on SARS-CoV PLpro [2], the IC50 was 6.3 ± 1.5 µM.
Consider `COc1c(O)ccc(C2COc3cc(O)cc(O)c3C2=O)c1OC` (stereo not shown) [Compound 9, parvisoflavanone], for which, on SARS-CoV PLpro [1], the “Inhibition Mode” value is recorded as “Noncompetitive (75.3 ± 5.7)” and the inhibitory constant (Ki) was found to be 75.3 µM. On SARS-CoV PLpro [2], this molecule gave an IC50 of 104 ± 6.1 µM.

Source of the values: paper PMC11644518 (Plants, 2024).
